Assay results taken from publication PMC13267113 (npj Drug Discovery, 2025).

Columns and labels:
[1] = test system: HEK293 (human, kidney); experiment: MTT cytotoxicity HEK293; type: cell-based; settings: HEK293, MTT, 72 h, n = 3, read-out: IC50 HEK293 (human, kidney)
Method: (§1) All cell types were cultivated at 37 °C with 5% CO2. HepG2, HEK293, HCT116, CHO-K1, HeLa-CCL-2 and Huh-7.5 were purchased from ATCC. The respective cell media (Gibco) were supplemented with 10% FBS (Gibco) before usage. Cells were used between passages #5 and #30. To obtain biological repeats, cells were split separately for at least two passages.
(§2) Cells were washed with PBS and 0.5 mL trypsin was added. Afterwards, cells were incubated for 5 min before adding 10 mL medium containing 10% FBS. Per well, 120 µL cell suspension (5 × 10^4 cells/mL) was seeded in transparent 96-well cell bind plates and incubated for 2 h (37 °C, 5% CO2). A dilution series (1:3) of test compounds was prepared in respective media containing 10% FBS and added (60 µL) to the prepared cell plate. Cells were incubated for a further 72 h (37 °C, 5% CO2). Next, 20 µL MTT (5 mg/mL in PBS) was added to each well and incubated for 2 h (37 °C, 5% CO2). The wells were emptied and 100 µL isopropanol/10 N HCl (1000:4) per well was added.
(§3) The plates were analyzed by measuring the absorbance at 570 nm (plate reader Infinite® 200 Pro, Tecan). After normalization of data to the respective solvent controls, the calculated percentage of growth inhibition was plotted using GraphPad Prism software (version 10.0.2).

[2] = test system: CHO-K1 (hamster, ovary); experiment: MTT cytotoxicity CHO-K1; type: cell-based; settings: CHO-K1, 72 h, n = 3
Method: as §1, §2, §3

[3] = test system: Huh-7.5 (human, liver); experiment: MTT cytotoxicity Huh-7.5; type: cell-based; settings: Huh7.5, 72 h, n = 3
Method: as §1, §2, §3

[4] = target: T1, scavenger receptor class B member 1 (SCARB1) (Homo sapiens, UniProt Q8WTV0); experiment: Affinity-based protein profiling (AfBPP), SCARB1; type: binding; settings: 12.5 µM pre-treatment before Cysto-354 (2.5 µM), HepG2, n = 4
T1 construct: endogenous in cells; host or cells: HepG2
T1 sequence (Q8WTV0 1-509 isoform Q8WTV0-2): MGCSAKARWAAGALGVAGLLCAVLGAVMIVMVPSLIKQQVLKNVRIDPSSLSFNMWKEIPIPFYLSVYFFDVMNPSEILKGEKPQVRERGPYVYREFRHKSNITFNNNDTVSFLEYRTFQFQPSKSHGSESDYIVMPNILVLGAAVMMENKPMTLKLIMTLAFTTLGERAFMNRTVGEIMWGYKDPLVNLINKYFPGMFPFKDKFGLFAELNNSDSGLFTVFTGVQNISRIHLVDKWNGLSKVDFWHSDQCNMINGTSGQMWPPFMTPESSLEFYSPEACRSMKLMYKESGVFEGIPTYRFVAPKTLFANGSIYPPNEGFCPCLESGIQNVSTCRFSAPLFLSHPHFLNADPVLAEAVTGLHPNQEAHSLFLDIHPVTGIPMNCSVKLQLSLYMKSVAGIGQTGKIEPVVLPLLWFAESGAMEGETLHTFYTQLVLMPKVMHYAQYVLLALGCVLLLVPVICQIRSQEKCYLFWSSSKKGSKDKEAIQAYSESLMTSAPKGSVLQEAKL
Method: Cells were seeded in 100 mm cell-bind petri dishes with a concentration of 2.8 × 10^6 cells per sample and incubated (37 °C, 5% CO2) for 3 days to reach ~80% confluence. Cells were washed with warm PBS prior to compound addition. Compound solutions as well as the DMSO control were generally added as freshly prepared solutions in pre-warmed, serum-free culture medium. Affinity-based proteome profiling was performed by treating the respective cell line with Cysto-354 (2.5 µM) for 3 h. For competition samples, cells were treated with CN-861-2 (12.5 µM) for 1 h, prior to addition of photo-probe Cysto-354 (2.5 µM) for 3 h incubation time. Control samples were treated with DMSO. Afterwards, cells were UV-irradiated for 10 min on ice, scraped off and transferred to Eppendorf tubes for washing with 1 mL cold PBS (centrifuge 5 min, 500g, 4 °C). The cell pellet was stored at −80 °C until lysis. Further sample preparation was done as previously described. […]
Peptides were measured and online-separated using an UltiMate 3000 nano HPLC system (Dionex) coupled to a Bruker timsTOF Pro mass spectrometer via a CaptiveSpray nano-electrospray ion source and Sonation column oven. […]
MS raw data was analyzed using MaxQuant software (version 2.0.3.0) and peptides were searched against Uniprot database for Homo sapiens (taxon identifier: 9606, downloaded on 11.03.2022, canonical, reviewed). […]

CO[C@H](C(N)=O)[C@H](NC(=O)c1ccc(NC(=O)c2ccc(C#N)cc2)cc1)C(=O)Nc1ccc(C(=O)Nc2ccc(C(=O)Nc3ccc(C(=O)O)cc3)c(O)c2OC(C)C)cc1 [CN-861-2]
IC50 [1]: > 20 µM
IC50 [2]: > 20 µM
IC50 [3]: > 20 µM
competition of SCARB1 enrichment [4]: significant competition
